Assay results published in patent US20130203097A1 (priority 2010, published 2013).
*: point of attachment. pNA = O=[N+]([O-])c1ccc(N*)cc1; MeOSuc = COC(=O)CCC(=O)*

Columns and labels:
[1] = system: Pseudomonas aeruginosa; conditions: cited from earlier work
[2] = system: strains of Legionella pneumophila; conditions: out of 283 strains of Legionella pneumophila tested; cited from earlier work
[3] = system: other species of Legionella; conditions: cited from earlier work
[4] = system: CC(=O)N[C@@H](CO)C(=O)N[C@@H](CCCCN)C(=O)NCC(=O)N[C@@H](Cc1ccc2ccc3cccc4ccc1c2c34)C(=O)N[C@@H](Cc1ccc(O)c([N+](=O)[O-])c1)C(=O)NCC(=O)NCC(=O)N[C@@H](CCCCN)C(N)=O; test: purified protein, by the assay type; conditions: pH 7.0; 37.0 °C

Substance | Pseudomonas aeruginosa that responded positively [1] | strains that degraded the substrate [2] | species that responded positively [3] | Km [4] [µM] | kcat [4] [s⁻¹]
MeOSuc-Arg-Pro-Tyr-pNA [Compound S-2586] | 22 | 282 | 2 | – | –
Msp (Legionella pneumophila) | – | – | – | 6.8 ± 0.6 | 23.9 ± 0.7
